Experimental data from patent US20230072683A1, “PYRIDO-PYRIMIDIN DERIVATIVES AND PHARMACEUTICAL COMPOSITION, FOR USE IN PREVENTING OR TREATING PI3 KINASE RELATED DISEASES, COMPRISING SAME AS ACTIVE INGREDIENT” (BORYUNG PHARMACEUTICAL CO., LTD, priority 2019, published 2023).
Where two headings read alike, the source gives them in different places.

Legend:
[1] = target: PI3K-δ (PI3K(p1108/p857) (h)) (Homo sapiens, UniProt O00329); assay: Evaluation of inhibitory activity against PI3K-δ (HTRF kinase assay); format: biochemical; settings: for inhibition at 0.01 µM: compound concentration 0.01 μM, read-out: EXP_VALUE(% Inhibition) PI3K-δ 0.01 μM; for inhibition at 0.1 µM: read-out: EXP_VALUE(% Inhibition) PI3K-δ 0.1 μM
Sequence of PI3K-δ (PI3K(p1108/p857) (h)) (O00329 whole entry, the tested form may be a part): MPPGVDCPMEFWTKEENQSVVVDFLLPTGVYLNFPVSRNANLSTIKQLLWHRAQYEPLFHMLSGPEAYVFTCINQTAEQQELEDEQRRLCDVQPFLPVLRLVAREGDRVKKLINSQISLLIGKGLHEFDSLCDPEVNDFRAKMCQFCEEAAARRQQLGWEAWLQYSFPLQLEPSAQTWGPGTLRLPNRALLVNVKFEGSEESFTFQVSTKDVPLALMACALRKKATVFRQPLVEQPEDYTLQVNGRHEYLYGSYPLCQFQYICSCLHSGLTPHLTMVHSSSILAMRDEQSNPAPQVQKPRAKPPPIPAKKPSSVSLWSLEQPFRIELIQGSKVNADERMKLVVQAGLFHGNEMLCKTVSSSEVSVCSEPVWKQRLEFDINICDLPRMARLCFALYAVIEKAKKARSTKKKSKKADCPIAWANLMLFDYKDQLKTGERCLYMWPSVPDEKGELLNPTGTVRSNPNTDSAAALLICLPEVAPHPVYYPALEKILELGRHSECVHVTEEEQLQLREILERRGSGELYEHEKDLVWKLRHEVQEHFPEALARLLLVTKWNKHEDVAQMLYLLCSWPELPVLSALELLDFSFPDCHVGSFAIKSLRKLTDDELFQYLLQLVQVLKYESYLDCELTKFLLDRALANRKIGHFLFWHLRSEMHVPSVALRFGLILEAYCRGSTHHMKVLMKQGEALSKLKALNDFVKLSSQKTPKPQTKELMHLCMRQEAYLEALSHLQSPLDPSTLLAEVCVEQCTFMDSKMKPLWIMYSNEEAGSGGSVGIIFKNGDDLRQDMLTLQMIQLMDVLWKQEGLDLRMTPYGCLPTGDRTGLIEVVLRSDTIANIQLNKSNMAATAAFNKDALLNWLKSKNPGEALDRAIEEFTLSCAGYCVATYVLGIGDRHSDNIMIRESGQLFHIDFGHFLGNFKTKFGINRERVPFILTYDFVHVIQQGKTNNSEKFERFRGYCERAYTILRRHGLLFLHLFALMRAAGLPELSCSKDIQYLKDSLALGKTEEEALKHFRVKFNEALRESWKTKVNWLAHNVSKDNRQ
Sequence of PI3K-δ (PI3K(p1108/p857) (h)) (P27986 whole entry partner, the tested form may be a part): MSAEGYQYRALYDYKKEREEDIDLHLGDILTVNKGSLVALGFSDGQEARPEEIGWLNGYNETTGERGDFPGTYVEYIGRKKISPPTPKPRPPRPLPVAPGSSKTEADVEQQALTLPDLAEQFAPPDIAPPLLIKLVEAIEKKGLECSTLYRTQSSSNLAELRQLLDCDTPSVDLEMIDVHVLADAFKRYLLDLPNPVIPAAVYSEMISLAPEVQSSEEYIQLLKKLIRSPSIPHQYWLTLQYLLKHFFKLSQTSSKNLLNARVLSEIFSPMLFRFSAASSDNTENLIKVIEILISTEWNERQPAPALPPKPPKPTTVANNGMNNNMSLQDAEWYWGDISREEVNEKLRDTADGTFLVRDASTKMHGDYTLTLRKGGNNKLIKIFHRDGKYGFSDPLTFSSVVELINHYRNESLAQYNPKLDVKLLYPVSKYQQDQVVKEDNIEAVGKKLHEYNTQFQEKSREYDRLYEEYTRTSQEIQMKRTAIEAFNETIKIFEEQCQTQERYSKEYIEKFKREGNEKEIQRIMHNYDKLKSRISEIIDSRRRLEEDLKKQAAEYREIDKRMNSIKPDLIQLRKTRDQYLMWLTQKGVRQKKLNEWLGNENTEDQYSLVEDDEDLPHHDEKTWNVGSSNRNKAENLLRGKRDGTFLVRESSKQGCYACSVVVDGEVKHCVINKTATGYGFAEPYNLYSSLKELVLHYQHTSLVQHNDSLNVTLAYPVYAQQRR
Procedure, shortened: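 HTRF read-out (665/620 nm ratio ×10000) used Eu-labelled anti-GST, GST-tagged GRP1 PH domain and streptavidin-allophycocyanin after EDTA/PIP3 stop.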

DNA-PK(h) = DNA-PK(h) (Homo sapiens, UniProt P78527); assay: Evaluation of inhibitory activity against DNA-PK (HTRF kinase assay, GST-cMyc-p53 substrate); format: biochemical; settings: for inhibition at 0.01 µM: compound concentration 0.01 μM, read-out: EXP_VALUE(% Inhibition) DNA-PK(h) 0.01 μM; for inhibition at 0.1 µM: read-out: EXP_VALUE(% Inhibition) DNA-PK(h) 0.1 μM
Procedure, shortened: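 Human DNA-PK with 50 μM GST-cMyc-p53 substrate; reaction started with Mg/ATP, run 30 min at room temperature, stopped with EDTA. Phospho-Ser15 p53 detected by HTRF (Eu anti-phospho-Ser15, d2 anti-GST), signal = 10000×(Em 665/Em 620).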

SMILES	inhibition at 0.01 µM [1] [%]	inhibition at 0.01 µM (DNA-PK(h)) [%]	inhibition at 0.1 µM ([1]; compound concentration 0.1 μM) [%]	inhibition at 0.1 µM (DNA-PK(h); compound concentration 0.1 μM) [%]	inhibition at 0.1 µM ([1]; compound at 0.1 μM) [%]	inhibition at 0.1 µM (DNA-PK(h); compound at 0.1 μM) [%]
C[C@H](Nc1ncnc2[nH]ccc(=O)c12)c1c(Cl)c2cccc(-c3ccc4ocnc4c3)c2c(=O)n1-c1ccccc1 [Example 241, (S)-4-((1-(8-(benzo[d]oxazol-5-yl)-4-chloro-1-oxo-2-phenyl-1,2-dihydroisoquinolin-3-yl)ethyl)amino)pyrido[2,3-d]pyrimidin-5(8H)-one]	32	49				
C[C@H](Nc1ncnc2[nH]ccc(=O)c12)c1c(Cl)c2cccc(-c3ccc4c(c3)OCCN4)c2c(=O)n1-c1ccccc1 [Example 120, (S)-4-((1-(4-chloro-8-(3,4-dihydro-2H-benzo[b][1,4]oxazin-7-yl)-1-oxo-2-phenyl-1,2-dihydroisoquinolin-3-yl)ethyl)amino)pyrido[2,3-d]pyrimidin-5(8H)-one]	65	72	95	98		
C[C@H](Nc1ncnc2[nH]ccc(=O)c12)c1c(Cl)c2cccc(-c3ccc(C(=O)N4CCOCC4)cc3)c2c(=O)n1-c1ccccc1 [Example 145, (S)-4-((1-(4-chloro-8-(4-(morpholin-4-carbonyl)phenyl)-1-oxo-2-phenyl-1,2-dihydroisoquinolin-3-yl)ethyl)amino)pyrido[2,3-d]pyrimidin-5(8H)-one]	88	93				
CCOC(=O)c1cccc2c(Cl)c([C@H](C)Nc3ncnc4[nH]ccc(=O)c34)n(-c3ccccc3)c(=O)c12 [Example 292, ethyl(S)-4-chloro-1-oxo-3-(1-((5-oxo-5,8-dihydropyrido[2,3-d]pyrimidin-4-yl)amino)ethyl)-2-phenyl-1,2-dihydroisoquinoline-8-carboxylate]	99	79	112	99		
C[C@H](Nc1ncnc2[nH]ccc(=O)c12)c1c(Cl)c2cccc(-c3ccc(C(=O)O)cc3)c2c(=O)n1-c1ccccc1 [Example 166, (S)-4-(4-chloro-1-oxo-3-(1-((5-oxo-5,8-dihydropyrido[2,3-d]pyrimidin-4-yl)amino)ethyl)-2-phenyl-1,2-dihydroisoquinolin-8-yl)benzoic acid]	59	67				
Cc1c(F)cccc1-c1cccc2c(Cl)c([C@H](C)Nc3ncnc4[nH]ccc(=O)c34)n(-c3ccccc3)c(=O)c12 [Example 109, (S)-4-((1-(4-chloro-8-(3-fluoro-2-methylphenyl)-1-oxo-2-phenyl-1,2-dihydroisoquinolin-3-yl)ethyl)amino)pyrido[2,3-d]pyrimidin-5(8H)-one]	61	10	94	65		
C[C@H](Nc1ncnc2[nH]ccc(=O)c12)c1c(Cl)c2cccc(-c3cnc4ccccc4n3)c2c(=O)n1-c1ccccc1 [Example 48, (S)-4-((1-(4-chloro-1-oxo-2-phenyl-8-(quinoxalin-2-yl)-1,2-dihydroisoquinolin-3-yl)ethyl)amino)pyrido[2,3-d]pyrimidin-5(8H)-one]	7	-5				
CCC[S@@+]([O-])c1cccc2c(Cl)c([C@H](C)Nc3ncnc4[nH]ccc(=O)c34)n(-c3ccccc3)c(=O)c12 [Example 397]					94	34
COCCOc1cccc2c(Cl)c([C@H](C)Nc3ncnc4[nH]ccc(=O)c34)n(-c3ccccc3)c(=O)c12 [Example 363, (S)-4-((1-(4-chloro-8-(2-methoxyethoxy)-1-oxo-2-phenyl-1,2-dihydroisoquinolin-3-yl)ethyl)amino)pyrido[2,3-d]pyrimidin-5(8H)-one]	26	35	76	80		
C[C@H](Nc1ncnc2[nH]ccc(=O)c12)c1c(Cl)c2cccc(C#Cc3ccncc3)c2c(=O)n1-c1ccccc1 [Example 306, (S)-4-((1-(4-chloro-1-oxo-2-phenyl-8-(pyridin-4-ylethynyl)-1,2-dihydroisoquinolin-3-yl)ethyl)amino)pyrido[2,3-d]pyrimidin-5(8H)-one]	57	75	105	95		
C[C@H](Nc1ncnc2[nH]ccc(=O)c12)c1c(Cl)c2cccc(-c3cnc(-c4cccs4)nc3)c2c(=O)n1-c1ccccc1 [Example 377, (S)-4-((1-(4-chloro-1-oxo-2-phenyl-8-(2-(thiophen-2-yl)pyrimidin-5-yl)-1,2-dihydroisoquinolin-3-yl)ethyl)amino)pyrido[2,3-d]pyrimidin-5(8H)-one]					59	30
C[C@H](Nc1ncnc2[nH]ccc(=O)c12)c1c(Cl)c2cccc(N(C)c3ccccn3)c2c(=O)n1-c1ccccc1 [Example 349, (S)-4-((1-(4-chloro-8-(methyl(pyridin-2-yl)amino)-1-oxo-2-phenyl-1,2-dihydroisoquinolin-3-yl)ethyl)amino)pyrido[2,3-d]pyrimidin-5(8H)-one]	72	15				
COc1cc(-c2cccc3c(Cl)c([C@H](C)Nc4ncnc5[nH]ccc(=O)c45)n(-c4ccccc4)c(=O)c23)ccc1OC(F)(F)F [Example 159, (S)-4-((1-(4-chloro-8-(3-methoxy-4-(trifluoromethoxy)phenyl)-1-oxo-2-phenyl-1,2-dihydroisoquinolin-3-yl)ethyl)amino)pyrido[2,3-d]pyrimidin-5(8H)-one]	28	19				

Other lines, results leading:

inhibition at 0.01 µM [1] [%]	inhibition at 0.01 µM (DNA-PK(h)) [%]	inhibition at 0.1 µM ([1]; compound concentration 0.1 μM) [%]	inhibition at 0.1 µM (DNA-PK(h); compound concentration 0.1 μM) [%]	inhibition at 0.1 µM ([1]; compound at 0.1 μM) [%]	inhibition at 0.1 µM (DNA-PK(h); compound at 0.1 μM) [%]	SMILES
51	7	88	53			C[C@H](Nc1ncnc2[nH]ccc(=O)c12)c1c(Br)c2cccc(-c3ccc(N(C)C)cc3)c2c(=O)n1-c1ccccc1 [Example 16, (S)-4-((1-(4-bromo-8-(4-(dimethylamino)phenyl)-1-oxo-2-phenyl-1,2-dihydroisoquinolin-3-yl)ethyl)amino)pyrido[2,3-d]pyrimidin-5(8H)-one]
48	25	94	80			CSc1ccc(-c2cccc3c(Cl)c([C@H](C)Nc4ncnc5[nH]ccc(=O)c45)n(-c4ccccc4)c(=O)c23)cc1 [Example 143, (S)-4-((1-(4-chloro-8-(4-(methylthio)phenyl)-1-oxo-2-phenyl-1,2-dihydroisoquinolin-3-yl)ethyl)amino)pyrido[2,3-d]pyrimidin-5(8H)-one]
77	72					C[C@H](Nc1ncnc2[nH]ccc(=O)c12)c1c(Cl)c2cccc(-c3cnc(N4CCC4)nc3)c2c(=O)n1-c1ccccc1 [Example 200, (S)-4-((1-(8-(2-(azetidin-1-yl)pyrimidin-5-yl)-4-chloro-1-oxo-2-phenyl-1,2-dihydroisoquinolin-3-yl)ethyl)amino)pyrido[2,3-d]pyrimidin-5(8H)-one]
65	7					Cc1c[nH]nc1-c1cccc2c(Cl)c([C@H](C)Nc3ncnc4[nH]ccc(=O)c34)n(-c3ccccc3)c(=O)c12 [Example 244, (S)-4-((1-(4-chloro-8-(4-methyl-1H-pyrazol-3-yl)-1-oxo-2-phenyl-1,2-dihydroisoquinolin-3-yl)ethyl)amino)pyrido[2,3-d]pyrimidin-5(8H)-one]
89	78	102	98			C[C@H](Nc1ncnc2[nH]ccc(=O)c12)c1c(Br)c2cccc(-c3cnn(C)c3)c2c(=O)n1-c1ccccc1 [Example 19, (S)-4-((1-(4-bromo-8-(1-methyl-1H-pyrazol-4-yl)-1-oxo-2-phenyl-1,2-dihydroisoquinolin-3-yl)ethyl)amino)pyrido[2,3-d]pyrimidin-5(8H)-one]
21	7					C[C@H](Nc1ncnc2[nH]ccc(=O)c12)c1c(Cl)c2cccc(-c3ncccn3)c2c(=O)n1-c1ccccc1 [Example 35, (S)-4-((1-(4-chloro-1-oxo-2-phenyl-8-(pyrimidin-2-yl)-1,2-dihydroisoquinolin-3-yl)ethyl)amino)pyrido[2,3-d]pyrimidin-5(8H)-one]
88	78					CCNc1ncc(-c2cccc3c(Cl)c([C@H](C)Nc4ncnc5[nH]ccc(=O)c45)n(-c4ccccc4)c(=O)c23)cn1 [Example 228, (S)-4-((1-(4-chloro-8-(2-(ethylamino)pyrimidin-5-yl)-1-oxo-2-phenyl-1,2-dihydroisoquinolin-3-yl)ethyl)amino)pyrido[2,3-d]pyrimidin-5(8H)-one]
82	79	93	98			C[C@H](Nc1ncnc2[nH]ccc(=O)c12)c1c(Cl)c2cccc(-c3ccc4nccn4c3)c2c(=O)n1-c1ccccc1 [Example 113, (S)-4-((1-(4-chloro-8-(imidazo[1,2-a]pyridin-6-yl)-1-oxo-2-phenyl-1,2-dihydroisoquinolin-3-yl)ethyl)amino)pyrido[2,3-d]pyrimidin-5(8H)-one]
